{"source": "patent US8741967B2", "about": "“Use of unsaturated sphingosine compounds as chemotherapeutic agents for the treatment of cancer” (Children's Hospital & Research Center at Oakland, priority 2007, dated 2014)", "key": {"HT29 cells [1]": {"tested_on": "HT29 cells", "assay": "Viability of HT29 colon cancer cells", "format": "cell-based, human", "description": "(§1) The human colon cancer cell lines, HT29, SW480, HCT116 and DLD1 were treated with 10 μM C14Δ4:6Sd (also referred to herein as 2-aminotetradeca-4,6-diene-1,3-diol) and viability was determined at 24 hours.\nHT29 cells were then incubated with various sphingadiene compounds and viability was determined at 24 hours.\nHT29 cells were incubated with various concentrations of C14Δ4:6Sd and viability was determined at 24 hours or incubated with 10 μM C14Δ4:6Sd and viability was determined at various time points.\nIn a further experiment, HT29 cells were treated with the PI3K inhibitor wortmannin and various concentrations of C14Δ4:6Sd and viability was determined at 24 hours by MTT assay. The results confirmed synergistic inhibition of […] by C14Δ4:6Sd and wortmannin (see FIG. 8C)."}, "4EBP [2]": {"tested_on": "4EBP", "assay": "Phosphorylated 4EBP in polyps of ApcMin/+ mice by western blotting", "format": "in vivo", "conditions": "gavage 2.5 mg/day, day 10", "description": "Murine experiments were performed to investigate the in vivo effect of C14Δ4:6Sd on the development of polyps in intestinal tissue using an established animal model system having an inherited genetic defect underlying spontaneous multiple intestinal neoplasia (Min) (Polakis, 1997 Biochim Biophys. Acta. 1332:F127; Kucherlapati et al., 2001 Semin. Canc. Biol. 11:219; Sansom et al., 2004 Genes Dev. 18:1385). Ten 12 week-old male ApcMin/+ mice (available from Jackson Laboratory, Bar Harbor, Me.) were administered by gavage 2.5 mg/day C14Δ4:6Sd and ten mice received vehicle control. Mice were euthanized by CO2 asphyxiation and intestinal tissues harvested at day 10. Gross polyps were counted and measured (diameter). […] Polyps were further analyzed for phosphorylated 4EBP by western blotting and it was confirmed that sphingadienes inhibited 4EBP phosphorylation in vivo."}, "4EBP [3]": {"tested_on": "4EBP", "assay": "4EBP phosphorylation by western blotting in SW480 cells", "format": "cell-based, human", "conditions": "SW480, 10 μM, up to 5 hours"}, "HT29 cells [4]": {"tested_on": "HT29 cells", "assay": "Uptake and metabolism in HT29 colon cancer cells (LC-MS)", "format": "in vitro ADME, human", "conditions": "for clearance / metabolism in cells after lipid removal: then incubated without lipids for up to 6 hours", "description": "In this example, the uptake and metabolism of C14 sphingadienes was compared with that of synthetic C17 sphingosine (as a substitute for endogenous C18 sphingosine which is already present in cells) and C14 sphingosine (to assess the importance of the second double bond) by HT29 colon cancer cells. Toward that end, cells were incubated with 10 μM sphingadiene in serum-free media, followed by cell harvest at various time points, lipid extraction and analysis by mass spectrometry of SD, SD-phosphate, C14 sphingosine and corresponding S1Ps.\nHT29 cells were incubated for 0.25 hours, 0.5 hours and 1 hour in media containing 10 μM C14-So (Δ4) (sphingosine) or C14Δ4:6Sd (see FIG. 9A). HT29 cells were incubated for 1 hour in media containing 10 μM C14-So or C14Δ4:6Sd. Media was then removed and cells were incubated without lipids for 1, 3 and 6 hours (FIG. 9B). At each time point, cells were harvested, lipids were extracted and the cellular contents of C14-So or C14Δ4:6Sd and the corresponding phosphorylated compounds were analyzed by LC-MS."}, "SW480 cells [5]": {"tested_on": "SW480 cells", "assay": "Autophagy: GFP-LC3 fluorescence microscopy in SW480 cells", "format": "cell-based, human", "conditions": "SW480 transfected with GFP-LC3, 5 μM, 4 h", "description": "(§2) Autophagy is a cell process used to degrade components of the cytoplasm and functions as a cell survival mechanism during nutrient deprivation (P. Codogno and A J Meijer, Cell Death Differ. 2005 November; 12 Suppl 2:1509-18). […] In order to further investigate this phenomenon, LC3 (microtubule associated protein 1 light chain 3) was used as a marker for this process.\n(§3) In one experiment, SW480 cells were transfected with a GFP-LC3 construct and treated for 4 h with 5 μM C14Δ4:6Sd. […] In another experiment, SW480 cells transfected with myr-Akt were treated with various concentrations of C14Δ4:6Sd and the amount of LC3 activation (shift from LC3-1 to LC3-2) was verified by western blotting."}, "protein synthesis": {"tested_on": "protein synthesis", "assay": "Translational activity of HT29 cell cytosol (DUAL-LUCIFERASE Reporter Assay System)", "format": "cell-based, human", "conditions": "HT29, 10 μM, 6 hours", "description": "(§4) HT29 cells were incubated for 6 hours with 10 μM C14Δ4:6Sd and the translational activity of the cell cytosol was measured with the DUAL-LUCIFERASE® Reporter Assay System (Promega, Madison, Wis.). […] In another experiment, HT29 cells were pretreated with inhibitors of p38 (SB20350), MEK (PD98059), PI3K (LY294002) and JNK (JNK inhibitor 2) and caspase 3 activity was determined following an 18 hour incubation with 10 μM C14Δ4:6Sd."}, "SK": {"tested_on": "SK", "assay": "Competition studies with sphingosine and SD on sphingosine kinase", "conditions": "not shown, listed as C14 SD"}, "SW480 cells [6]": {"tested_on": "SW480 cells", "assay": "Viability of SW480 colon cancer cells", "format": "cell-based", "conditions": "Homo sapiens; SW480, 10 μM, 24 hours; read-out: viability, % of controls", "description": "as §1"}, "DLD1 cells": {"tested_on": "DLD1 cells", "assay": "Viability of DLD1 colon cancer cells", "format": "cell-based", "conditions": "Homo sapiens, DLD-1; DLD1, 10 μM, 24 hours; read-out: viability, % of controls", "description": "as §1"}, "HT29 cells [7]": {"tested_on": "HT29 cells", "assay": "Caspase-3 activity assay (apoptosis) in HT29 colon cancer cells", "format": "cell-based, human", "description": "To assess the effect of C14 sphingadienes on colon cancer cell viability, HT29, DLD1 and SW480 colon cancer cells (available from American Type Culture Collection (ATCC), Manassas, Va.) were propagated in DME-H21 plus 10% serum until ⅔ confluent. Media was then replaced with serum-free media containing 10 μM sphingadienes (SD). After 24 hours, cells were harvested, and whole cell extracts were prepared for caspase-3 activity assays. Caspase-3 activity was determined using substrate Ac-DEVD-pNA (Biomol, Plymouth Meeting, Pa.) as described (Oskouian, B., et al., Proc Natl Acad Sci USA 103: 17384-17389, 2006).\nIn an additional experiment, HT29 cells were treated with 10 μM sphingoid bases or ceramides and caspase-3 activity was determined at 24 hours.\nHT29 cells transfected with constitutively active myristoylated Akt (myr-Akt) were treated with 10 μM C14Δ4:6Sd and caspase 3 activity was determined at 24 hours.\nas §4"}, "LC3": {"tested_on": "LC3", "assay": "LC3 activation (LC3-1 to LC3-2 shift) by western blotting in SW480 cells transfected with myr-Akt", "format": "cell-based, human", "conditions": "various concentrations", "description": "as §2, §3"}, "[8]": {"conditions": "HT29 pretreated with inhibitor, 18 hour incubation with 10 μM"}}, "data": [{"molecule": "CCCCCCC/C=C/C=C/C(O)C(N)CO", "note": "(centres unmarked) [C14Δ4:6Sd, 2-aminotetradeca-4,6-diene-1,3-diol]", "values": [{"measurement": "dose and time dependence of cytotoxicity", "setting": "HT29 cells [1]; HT29, various concentrations at 24 hours or 10 μM at various time points", "result": "dose- and time-dependent"}, {"measurement": "cytotoxicity (viability)", "setting": "HT29 cells [1]; HT29, various concentrations, 24 hours", "result": "cytotoxic"}, {"measurement": "viability in combination with PI3K inhibitor wortmannin", "setting": "HT29 cells [1]; HT29, various concentrations, 24 hours, MTT assay", "result": "synergistic"}, {"measurement": "viability at 10 µM", "setting": "HT29 cells [1]; Homo sapiens, HT-29, HT29, 10 μM, 24 hours, read-out: viability, % of controls", "result": "< 50", "unit": "%"}, {"measurement": "4EBP phosphorylation in polyps in vivo", "setting": "4EBP [2]", "result": "inhibited"}, {"measurement": "phosphorylation of 4EBP", "setting": "4EBP [3]", "result": "reduced phosphorylation"}, {"measurement": "conversion to the phosphorylated compound in intact cells", "setting": "HT29 cells [4]; HT29, 10 μM, LC-MS, listed as C14 SDs", "result": "not converted to SD-phosphates"}, {"measurement": "uptake rate compared with long chain sphingosine", "setting": "HT29 cells [4]; HT29, 10 μM, not shown", "result": "faster"}, {"measurement": "uptake rate by cells", "setting": "HT29 cells [4]; HT29, 10 μM, serum-free media", "result": "taken up at equal rates"}, {"measurement": "clearance / metabolism in cells after lipid removal", "setting": "HT29 cells [4]; HT29, 10 μM", "result": "remains unaltered"}, {"measurement": "clearance / metabolism in cells after lipid removal", "setting": "HT29 cells [4]; HT29, 10 μM, listed as C14 SDs", "result": "remained in the cells for many hours"}, {"measurement": "time remaining in cells after lipid removal", "setting": "HT29 cells [4]; HT29, FIG. 3", "result": 6, "unit": "h"}, {"measurement": "autophagosome formation (GFP-LC3)", "setting": "SW480 cells [5]", "result": "autophagosome formation"}, {"measurement": "Luciferase activity (translational activity, protein synthesis)", "setting": "protein synthesis", "result": "reduced by more than half"}, {"measurement": "inhibition of SK", "setting": "SK", "result": "inhibit SK"}, {"measurement": "viability at 10 µM", "setting": "SW480 cells [6]", "result": "< 50", "unit": "%"}, {"measurement": "viability at 10 µM", "setting": "DLD1 cells", "result": "< 50", "unit": "%"}, {"measurement": "caspase 3 activity in combination with JNK inhibitor (JNK inhibitor 2)", "setting": "HT29 cells [7]; [8]", "result": "not synergistic"}, {"measurement": "caspase 3 activity in combination with MEK inhibitor (PD98059)", "setting": "HT29 cells [7]; [8]", "result": "not synergistic"}, {"measurement": "caspase 3 activity in combination with PI3K inhibitor LY294002", "setting": "HT29 cells [7]; [8]", "result": "synergistic"}, {"measurement": "caspase 3 activity in combination with p38 inhibitor (SB20350)", "setting": "HT29 cells [7]; [8]", "result": "not synergistic"}, {"measurement": "caspase 3 activity / cell death in HT29 cells transfected with myr-Akt", "setting": "HT29 cells [7]; constitutively active myristoylated Akt, 10 μM, 24 hours", "result": "protected against sphingadiene-induced cell death"}, {"measurement": "LC3 activation (shift from LC3-1 to LC3-2)", "setting": "LC3", "result": "autophagic activity"}]}]}
